Measurements as given in patent US5254541A, “(Quinolin-2-ylmethoxy)indole/cyclodextrin complex” (Merck Frosst Canada, Inc., priority 1991, dated 1993).
Where a name gives a salt, the structure may show the parent alone.

Experiments:
aqueous solubility = format: physicochemical; conditions: water, crystalline sodium salt
[1] = format: physicochemical
Description: Phase solubility experiments were conducted by adding excess amounts (20 mg/mL) of L-686,708, sodium salt, to aqueous solutions (pH=9) containing various amounts of cyclodextrin and mixing on a rotating mixer. After equilibration at room temperature for at least 48 hrs, aliquots of the mixture were centrifuged to separate the undissolved sodium salt. The supernatant was diluted and dissolved L-686,708 concentration measured by HPLC. […] This stability constant is a tentative measure of complex formation.

[2] = oral bioavailability, general statement; conditions: in vivo
[3] = solid state characteristics of the crystalline sodium salt; format: physicochemical; conditions: non-hygroscopicity, physical stability, etc.

solubility (aqueous solubility): 5 to 30 µg/mL | type of solubility curve (Higuchi) [1]: An -type | oral bioavailability (in words) [2]: low oral bioavailability
Structure (SMILES): CC(C)(C)Sc1c(CC(C)(C)C(=O)O)n(Cc2ccc(Cl)cc2)c2ccc(OCc3ccc4ccccc4n3)cc12 [L-686,708 sodium salt, Crystalline 3-[N-(p-chlorobenzyl)-3-(t-butylthio)-5-(quinolin-2-ylmethoxy)indol-2-yl]-2.2-dimethylpropanoic acid, sodium salt]
solid state characteristics (in words) [3]: good solid state characteristics, such as non-hygroscopicity, physical stability
